# Values quoted from earlier work, collected in patent publication US7056534B2, “Coated potassium chloride granules and tablets” (Upsher-Smith Laboratories, Inc., priority 2001, dated 2006).
# Read-outs that look alike come from different tables or passages of the source.
structure (smiles),measurement,setting,value
[Cl-].[K+] [Potassium chloride],Solubility,acetone,insoluble
same,Volume of solvent in which 1 gram dissolves,boiling water,1.8 mL
same,Solubility,ether,insoluble
same,Volume of solvent in which 1 gram dissolves,ethyl alcohol,about 250 ml
same,Volume of solvent in which 1 gram dissolves,glycerol,14 mL
same,Volume of solvent in which 1 gram dissolves,water,2.8 mL
